Laboratory results published in patent US9637469B2, “Pyridine derivative” (Teijin Pharma Limited, priority 2012, dated 2017).

Each compound was assayed against T1, human URAT1 (Homo sapiens, UniProt Q96S37) (assay: Test for inhibition of uric acid transport using human URAT1-expressing cells). Conditions: HEK 293 cells expressing human URAT1; 14C-labeled uric acid 25 μM; uptake 37° C. for 5 min.
T1 construct: Full-length cDNA of human URAT1 (hURAT1)
T1 sequence (Q96S37 1-553): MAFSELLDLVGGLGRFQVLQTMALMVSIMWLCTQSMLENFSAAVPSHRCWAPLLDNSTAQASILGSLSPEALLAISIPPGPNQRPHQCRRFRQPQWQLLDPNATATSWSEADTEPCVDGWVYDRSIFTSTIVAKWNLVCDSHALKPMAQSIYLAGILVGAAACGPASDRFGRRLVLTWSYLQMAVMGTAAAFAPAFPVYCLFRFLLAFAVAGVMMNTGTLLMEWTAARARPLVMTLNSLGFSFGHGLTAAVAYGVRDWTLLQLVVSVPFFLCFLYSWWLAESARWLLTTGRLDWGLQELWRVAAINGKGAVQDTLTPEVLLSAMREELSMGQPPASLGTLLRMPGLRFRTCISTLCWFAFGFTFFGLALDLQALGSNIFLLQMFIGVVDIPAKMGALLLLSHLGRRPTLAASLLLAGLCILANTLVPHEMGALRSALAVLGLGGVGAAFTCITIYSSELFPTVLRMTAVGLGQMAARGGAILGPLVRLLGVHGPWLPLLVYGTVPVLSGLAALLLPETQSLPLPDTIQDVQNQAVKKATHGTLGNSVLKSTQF
Assay type: cell-based
Procedure: (1) Preparation of the Test Compound
The test compound was dissolved in DMSO (produced by Sigma) to a concentration of 20 mM and was subsequently used by diluting to desired concentrations.
(2) Test for Inhibition of Uric Acid Transport Using Human URAT1-Expressing Cells;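 note: three stars up to 0.2 µM two stars 0.2-2 µM one star 2-20 µM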
Full-length cDNA of human URAT1 (hURAT1) (produced by OriGene Technologies, Inc., NCBI Reference Sequence: NM 144585) was subcloned into an expression vector, pCMV6-Kan/Neo (produced by OriGene Technologies, Inc.), and hURAT1 gene was transfected into human embryonic kidney-derived cells (HEK 293 cells) by liposome method using Lipofectamine 2000 (produced by Invitrogen Corporation), whereupon HEK 293 cells expressing human URAT1 gene were screened by its Geneticin resistance. By a method similar to the following method, functional expression of human URAT1 gene was confirmed by using transport of ^14C-labeled uric acid into the cells as an index.
The HEK 293 cells expressing human URAT1 were seeded in a 24-well cell culture dish to a density of 3×10^5 cells/mL/well and were cultured in Dulbecco's modified Eagle's medium (D-MEM medium) containing 10% fetal bovine serum at 37° C. for 2 days. Thereafter, the following test for inhibition of uric acid transport was performed.
After the medium was removed by aspiration from each well, the medium was replaced with a solution obtained by substituting NaCl in Hank's Balanced Salt Solution (HBSS) with Na gluconate (hereinafter, HBSS/Na-gluconate) and the cells were preincubated at 37° C. for about 10 minutes. HBSS/Na-gluconate was removed by aspiration and a ^14C-uric acid solution that was warmed at 37° C. in advance containing various concentrations of the Example compound described in (1) and a radioactive ligand (^14C-labeled uric acid; final concentration 25 μM) was added and an uptake reaction was carried out by incubating at 37° C. for 5 min. After the incubation, ^14C-labeled uric acid solution was removed by aspiration and the cells were washed three times with ice-cold HBSS. The HEK 293 cells expressing human URAT1 were lysed in 0.2 mol/L aqueous NaOH (hereafter, the cell sample) and the cell samples were collected. The cell sample and a liquid scintillation liquid, ULTIMA GOLD (produced by PerkinElmer, Inc.) were mixed and the radioactivity was measured by a liquid scintillation counter (Beckman Coulter, Inc.).
The uric acid transport rate of the Example compound at each concentration (% of control uptake) was calculated relative to the radioactivity (radioactivity in human URAT1 expressing HEK 293 cells without addition of the Example compound (DMSO addition)) showing URAT1-specific uric acid transport as 100%, and the concentration (IC50) of the Example compound at which the uric acid transport rate is inhibited by 50% was determined. In addition, the symbols (*, **, and ***) in the table represent the following inhibitory activity values: • IC50≦_ 0.2 μM: *** • 0.2 μM<IC50≦2 μM: ** • 2 μM<IC50≦20 μM: *

SMILES | Inhibitory Activity (IC50 of uric acid transport inhibition)
O=C(O)c1c(Cl)nc(-c2cccnc2)n1Cc1cc(Cl)ccc1Cl [Compound A88, 4-chloro-1-(2,5-dichlorobenzyl)-2-(pyridin-3-yl)-1H-imidazole-5-carboxylic acid] | * * *
O=C(NS(=O)(=O)C1CC1)c1ccc(-c2cccnc2)n1Cc1cccc2ccccc12 [Compound B25, N-(cyclopropylsulfonyl)-1-(naphthalen-1-ylmethyl)-2-(pyridin-3-yl)-1H-pyrrole-5-carboxamide] | * * *
CC(C)c1nc(-c2cccnc2)n(Cc2csc3cccc(C(F)(F)F)c23)c1C(=O)O [Compound A39, 4-isopropyl-2-(pyridin-3-yl)-1-((4-(trifluoromethyl)benzo[b]thiophen-3-yl)methyl)-1H-imidazole-5-carboxylic acid] | * * *
Cc1ncccc1Oc1nc(C)c(C(=O)O)n1Cc1cc(Cl)ccc1Cl [Compound A252, 1-(2,5-dichlorobenzyl)-4-methyl-2-((2-methylpyridin-3-yl)oxy)-1H-imidazole-5-carboxylic acid] | * * *
Cc1nc(Oc2cccnc2Cl)n(Cc2cc(Cl)ccc2Cl)c1C(=O)O [Compound A253, 2-((2-chloropyridin-3-yl)oxy)-1-(2,5-dichlorobenzyl)-4-methyl-1H-imidazole-5-carboxylic acid] | * * *
Cc1nc(-c2cccnc2)n(Cc2cc(F)ccc2Cl)c1C(=O)O [Compound A41, 1-(2-chloro-5-fluorobenzyl)-4-methyl-2-(pyridin-3-yl)-1H-imidazole-5-carboxylic acid] | * *
Cc1nc(-c2cncc(OC(C)C)c2)n(Cc2cc(Cl)ccc2Cl)c1C(=O)O [Compound A175, 1-(2,5-dichlorobenzyl)-2-(5-isopropoxypyridin-3-yl)-4-methyl-1H-imidazole-5-carboxylic acid] | * *
Cc1nc(Oc2cccnc2Br)n(Cc2cc(Cl)ccc2Cl)c1C(=O)O [Compound A254, 2-((2-bromopyridin-3-yl)oxy)-1-(2,5-dichlorobenzyl)-4-methyl-1H-imidazole-5-carboxylic acid] | * * *
O=C(O)c1c(C(F)(F)F)nc(-c2cccnc2)n1Cc1csc2cccc(Br)c12 [Compound A31, 1-((4-bromobenzo[b]thiophen-3-yl)methyl)-2-(pyridin-3-yl)-4-(trifluoromethyl)-1H-imidazole-5-carboxylic acid] | * *
O=C(O)c1cnc(-c2cccnc2)n1Cc1cc(Cl)ccc1Cl [Compound A45, 1-(2,5-dichlorobenzyl)-2-(pyridin-3-yl)-1H-imidazole-5-carboxylic acid] | * * *
O=C(O)c1c(CN2CCOCC2)nc(-c2cncc(Cl)c2)n1Cc1cc(Cl)ccc1Cl [Compound A196, 2-(5-chloropyridin-3-yl)-1-(2,5-dichlorobenzyl)-4-(morpholinomethyl)-1H-imidazole-5-carboxylic acid] | * * *
Cc1nc(-c2cncc(C#N)c2)n(Cc2cc(Cl)ccc2Cl)c1C(=O)O [Compound A158, 2-(5-cyanopyridin-3-yl)-1-(2,5-dichlorobenzyl)-4-methyl-1H-imidazole-5-carboxylic acid] | * *
CC(C)c1nc(-c2cncc(Cl)c2)n(Cc2cccc3ccccc23)c1C(=O)O [Compound A144, 2-(5-chloropyridin-3-yl)-4-isopropyl-1-(naphthalen-1-ylmethyl)-1H-imidazole-5-carboxylic acid] | * * *
CC(=O)c1cncc(-c2nc(C)c(C(=O)O)n2Cc2cc(Cl)ccc2Cl)c1 [Compound A183, 2-(5-acetylpyridin-3-yl)-1-(2,5-dichlorobenzyl)-4-methyl-1H-imidazole-5-carboxylic acid] | * * *
CCSc1nc(-c2cccnc2)n(Cc2cc(Cl)ccc2Cl)c1C(=O)O [Compound A105, 1-(2,5-dichlorobenzyl)-4-(ethylthio)-2-(pyridin-3-yl)-1H-imidazole-5-carboxylic acid] | * * *
Cc1ccc(-c2nc(C)c(C(=O)O)n2Cc2cc(Cl)ccc2Cl)cn1 [Compound A159, 1-(2,5-dichlorobenzyl)-4-methyl-2-(6-methylpyridin-3-yl)-1H-imidazole-5-carboxylic acid] | * *
O=C(O)c1ccc(-c2cccnc2)n1Cc1csc2cccc(C(F)(F)F)c12 [Compound B9, 2-(pyridin-3-yl)-1-((4-(trifluoromethyl)benzo[b]thiophen-3-yl)methyl)-1H-pyrrole-5-carboxylic acid] | * * *
CC(C)c1nc(-c2cncc(F)c2)n(Cc2cccc3ccccc23)c1C(=O)O [Compound A152, 2-(5-fluoropyridin-3-yl)-4-isopropyl-1-(naphthalen-1-ylmethyl)-1H-imidazole-5-carboxylic acid] | * *
Cc1cccc2scc(Cn3c(C(=O)O)ccc3-c3cccnc3)c12 [Compound B7, 1-((4-methylbenzo[b]thiophen-3-yl)methyl)-2-(pyridin-3-yl)-1H-pyrrole-5-carboxylic acid] | * * *
Cc1ccc(Oc2nc(-c3cccnc3)n(Cc3cc(Cl)ccc3Cl)c2C(=O)O)cc1 [Compound A99, 1-(2,5-dichlorobenzyl)-2-(pyridin-3-yl)-4-(p-tolyloxy)-1H-imidazole-5-carboxylic acid] | * * *
O=C(O)c1c(-c2ccc(F)cc2)nc(-c2cccnc2)n1Cc1cc(Cl)ccc1Cl [Compound A93, 1-(2,5-dichlorobenzyl)-4-(4-fluorophenyl)-2-(pyridin-3-yl)-1H-imidazole-5-carboxylic acid] | * * *
Cc1nc(-c2cncc(Br)c2)n(Cc2cc(Cl)ccc2Cl)c1C(=O)O [Compound A177, 2-(5-bromopyridin-3-yl)-1-(2,5-dichlorobenzyl)-4-methyl-1H-imidazole-5-carboxylic acid] | * * *
O=C(O)/C=C/c1ccc(-c2cccnc2)n1Cc1cccc2ccccc12 [Compound B33, (E)-3-(1-(naphthalen-1-ylmethyl)-2-(pyridin-3-yl)-1H-pyrrole-5-yl)acrylic acid] | * * *

Same assay, conditions: HEK 293 cells expressing human URAT1; 14C-labeled uric acid 25 μM; uptake 37° C. for 5 min; read-out: Inhibitory Activity (IC50 of uric acid transport inhibition)

SMILES | IC50
CC(C)(Sc1cnc(-c2cccnc2)n1Cc1cc(Cl)ccc1Cl)C(=O)O [Compound A261] | 2 to 20 µM
O=C(O)c1c(OCCO)nc(-c2cccnc2)n1Cc1cc(Cl)ccc1Cl [Compound A97] | 2 to 20 µM
Cc1cccc(Cn2c(-c3cccnc3)nc(C)c2C(=O)O)c1 [Compound A58] | 2 to 20 µM
Cc1nc(-c2cccnc2)n(Cc2ccccc2Cl)c1C(=O)O [Compound A51] | 2 to 20 µM
Cc1nc(-c2cccnc2)n(Cc2csc3ccccc23)c1C(=O)O [Compound A16] | 2 to 20 µM
COc1cncc(-c2nc(C)c(C(=O)O)n2Cc2cccc3ccccc23)c1 [Compound A120] | 2 to 20 µM
